Assay [1] addresses T1, hUGT1A1 (Homo sapiens, UniProt P22309).
T1 sequence (P22309 26-533): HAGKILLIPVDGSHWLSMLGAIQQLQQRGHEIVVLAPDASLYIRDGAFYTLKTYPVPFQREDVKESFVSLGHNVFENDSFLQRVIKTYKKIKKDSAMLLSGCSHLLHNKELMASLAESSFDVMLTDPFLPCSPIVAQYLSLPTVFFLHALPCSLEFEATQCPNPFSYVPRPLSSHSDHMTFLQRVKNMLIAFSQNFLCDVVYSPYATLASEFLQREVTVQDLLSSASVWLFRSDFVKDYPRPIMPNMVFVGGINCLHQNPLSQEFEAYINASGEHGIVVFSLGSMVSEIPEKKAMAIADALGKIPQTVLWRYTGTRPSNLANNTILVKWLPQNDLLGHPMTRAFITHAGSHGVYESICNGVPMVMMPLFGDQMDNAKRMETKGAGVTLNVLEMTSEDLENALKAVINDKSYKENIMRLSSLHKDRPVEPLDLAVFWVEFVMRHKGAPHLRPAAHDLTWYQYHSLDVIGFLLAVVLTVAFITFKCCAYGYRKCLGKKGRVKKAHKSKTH
Nature of the assay: UGT1A1 inhibition assay and inhibition kinetics in human liver microsomes (NHPN-O-glucuronidation). The assay is classed as biochemical. Particulars: NHPN-O-glucuronidation in HLM. A general note: Liver microsomes are a subcellular fraction often used to study metabolism.

Assay [2] deals with T1, hUGT1A1. Nature of the assay: UGT1A1 inhibition assay in living HeLa-UGT1A1 cells (NHPN-O-glucuronidation, LC-FD). The conditions noted are these: for inhibition of intracellular hUGT1A1: high concentration (100 μM), HeLa-UGT1A1 cells. Format: cell-based. Details: expressed in transfected cells; host or cells: HeLa cells, stably transduced with lentivirus (HeLa-UGT1A1). On the procedure: A RF-20A FD detector coupled UFLC system (Shimadzu, Kyoto, Japan), equipped with a DGU-20A5R vacuum degasser, two LC-20ADXR pumps, a SIL-20ACXR autosampler and a CTO-20A column oven, was used to quantify NHPN and NHPNG. Chromatographic separation of analytes was carried out on a shim-pack Acchrom HC-C18 analytical column (2.0 × 150 mm, 4.6 μm particle size), while the column temperature was kept at 40°C. The flow rate was kept at 0.5 ml/min. The mobile phase consisted of acetonitrile (A) and water containing 0.2% formic acid (B). The gradient of the mobile phase was as follows: 0–0.5 min, 80–60% B; 0.5–3.5 min, 60–5% B; 3.5–5 min, 5% B; 5–7.5 min, equilibration with 80% B. The excitation wavelength and the emission wavelength were set at 370 and 520 nm, respectively for detection.
The inhibitory effects of herbal products and chemical constituents of GBL extract on UGT1A1 were investigated in living HeLa-UGT1A1 cells by using a specific fluorescent substrate, NHPN, as a probe. HeLa-UGT1A1 cells were cultured at 37°C in 5% CO2 in Modified Eagle’s Medium (MEM) containing 0.1% antibiotic-antimycoticmix, supplemented with 10% fetal bovine serum (FBS). HeLa-UGT1A1 cells were seeded in 96-well plates and cultured for 24 h. The cells were incubated in the medium containing different kinds of herbal products (final concentration, 10 μg/ml) or chemical constituents of GBL extract (diluted to different concentration by DMSO with the final concentration of 1% DMSO in each incubation) for 60 min at 37°C under 5% CO2, and co-incubated with NHPN (final concentration, 50 μM) for another 60 min. […] The validation data for this cell-based flourescence assay can be found in our previous publication ([Zhu et al., 2020]).

Assay [3] addresses T1, hUGT1A1. Nature of the assay: UGT1A1 inhibition assay and inhibition kinetics in human liver microsomes (NHPN-O-glucuronidation). The conditions noted are these: NHPN-O-glucuronidation in HLM; for Ki: second plot of Lineweaver-Burk slopes. Format: biochemical. On the procedure:
A set of incubations by changing both the fluorescent substrate concentration and the inhibitor concentration were performed to determine the inhibition kinetic modes and the corresponding inhibition constant (K i ) values. The incubation and analytical sample preparation were conducted as described previously. Goodness-of-fit parameter and Akaike’s Information Criterion (AIC) were employed to select the most appropriate inhibition kinetic modes from the following three inhibition modes including competitive inhibition Eq. 1, noncompetitive inhibition Eq. 2, or mixed inhibition Eq. 3, V=Vmax×[S]/Km×(1+[I]/Ki)+[S] (1) V=Vmax×[S]/(Km+[S])×(1+[I]/Ki) (2) V=Vmax×[S]/Km×(1+[I]/Ki)+[S]×(1+[I]/αKi) (3)
Here, V is the turnover of the glucuronidation reaction; V max is the maximum velocity; S and I are the substrate and inhibitor concentrations, respectively; K m is the Michaelis constant (substrate concentration at 0.5 V max ); K i is the inhibition constant that describes the affinity of the inhibitor towards hUGT1A1. The corresponding K i value of each tested inhibitor is calculated by utilizing the slopes of second plot from Lineweaver-Burk plot versus inhibitor concentrations.

The target of assay [4] is T1, hUGT1A1. Nature of the assay: UGT1A1 inhibition assay with recombinant UGT1A1 (NHPN-O-glucuronidation).
Method: NHPN was used for evaluating the inhibitory effects of GBL extract on HLM. A typical incubation mixture with a total volume of 200 μl consisted of 50 mM Tris-HCl (pH = 7.4), 5 mM MgCl2, 2 mM UDPGA, NHPN (diluted by DMSO, 5 μM) and the enzymes. […] The final concentration of DMSO in the incubation mixture was less than 1%. […] A concentration of 5 μg/ml was used when recombinant UGT1A1 was the enzyme source. After pre-incubation for 3 min at 37°C, UDPGA was added to the incubation mixture to initiate the reaction. After 60 min incubation at 37°C, the reaction was terminated by adding 200 μl ice-cold acetonitrile, and the incubation mixture was kept on ice. After centrifugation at 20,000×g for 20 min at 4°C, 5 μl aliquots of the supernatant was taken for LC-FD analysis.
The residual activity of hUGT1A1 was determined as follows: Residual activity (%) = (the fluorescence intensity of NHPNG generated in the incubations with inhibitor)/(the fluorescence intensity of NHPNG generated in the incubations without inhibitor) × 100%. A set of incubations with the same fluorescent substrate concentration and different inhibitor concentrations were performed to determine the half maximal inhibition concentration (IC50).
Where [5] appears, read: hUGT1A1-catalyzed NHPN-O-glucuronidation in HeLa-UGT1A1 cells, read-out: IC50.

A value given as a limit tells only on which side of the number the result lay.

`O=c1cc(-c2ccc(O)c(-c3c(O)cc(O)c4c(=O)cc(-c5ccc(O)cc5)oc34)c2)oc2cc(O)cc(O)c12` [Amentoflavone]: the IC50 worked out at 0.41 ± 0.034 µM in assay [1] and 3.29 ± 0.47 µM in assay [2] (setting [5]).

In the case of `O=c1cc(-c2ccc(O)cc2)oc2cc(O)cc(O)c12` [Apigenin], the IC50 in assay [2] (setting [5]) amounted to 1.89 ± 0.24 µM.

For the compound `CC(C)(C)[C@]1(O)CC2OC(=O)CC23C(=O)OC2OC(=O)[C@H](O)C231` (stereo partly shown) [Bilobalide], in assay [2], the half-inhibitory concentration (IC50) was above 100 µM and the “inhibition of intracellular hUGT1A1” value is “did not inhibit”.

In the case of `COc1ccc(-c2cc(=O)c3c(O)cc(O)cc3o2)cc1-c1c(O)cc(O)c2c(=O)cc(-c3ccc(O)cc3)oc12` [Bilobetin], the Inhibition mode result in assay [3] is recorded as “Mixed”. In assay [3], this compound had a Ki of 0.18 µM. Moreover, the IC50 in assay [1] was 0.2 ± 0.023 µM; in assay [4], 0.1 to 0.29 µM; in assay [2] (setting [5]) it was 0.41 ± 0.048 µM.

For the compound `COc1cc(O)c2c(=O)cc(-c3ccc(O)cc3)oc2c1` [Genkwanin], the IC50 in assay [2] (setting [5]) was determined as 1.5 ± 0.46 µM.

For `COc1cc(O)c2c(=O)cc(-c3ccc(OC)c(-c4c(O)cc(O)c5c(=O)cc(-c6ccc(O)cc6)oc45)c3)oc2c1` [Ginkgetin], the Inhibition mode entry in assay [3] was “Mixed”. For the same compound, in assay [3], the affinity corresponds to a Ki of 0.07 µM. Moreover, the IC50 in assay [1] was 0.15 ± 0.014 µM; in assay [4], 0.1 to 0.29 µM; in assay [2] (setting [5]) it was 0.075 ± 0.009 µM.

As to `C[C@@H]1C(=O)O[C@H]2C[C@@]34[C@H]5C[C@@H](C(C)(C)C)[C@]36[C@@H](OC(=O)[C@@H]6O)O[C@@]4(C(=O)O5)[C@]21O` [Ginkgolide A], the IC50 in assay [2] (setting [5]) is above 100 µM. In addition, the “inhibition of intracellular hUGT1A1” value in assay [2] was “did not inhibit”.

On to `COc1ccc(-c2cc(=O)c3c(O)cc(O)c(-c4cc(-c5cc(=O)c6c(O)cc(O)cc6o5)ccc4OC)c3o2)cc1` [Isoginkgetin], for which the Inhibition mode entry in assay [3] was “Mixed”. Besides, affinity in assay [3] was put at a Ki of 0.74 µM. Also, the IC50 in assay [1] is 0.67 ± 0.085 µM; in assay [4], 0.1 to 0.29 µM; in assay [2] (setting [5]), 0.16 ± 0.02 µM.

As to `O=c1c(O)c(-c2ccc(O)cc2)oc2cc(O)cc(O)c12` [Kaempferol], the IC50 in assay [2] (setting [5]) turned out to be 1.38 ± 0.19 µM.

As for `COc1cc(-c2oc3cc(O)cc(O)c3c(=O)c2O)ccc1O` [Lsorhamnetin, isorhamnetin], in assay [2] (setting [5]), the IC50 stood at 1.68 ± 0.34 µM.

Regarding `O=c1cc(-c2ccc(O)c(O)c2)oc2cc(O)cc(O)c12` [Luteolin], the IC50 in assay [2] (setting [5]) amounted to 1.41 ± 0.17 µM.

Regarding `O=c1c(O)c(-c2cc(O)c(O)c(O)c2)oc2cc(O)cc(O)c12` [Myricetin], the concentration for half-maximal inhibition (IC50) in assay [2] (setting [5]) came to 64.6 ± 12.2 µM.

For the compound `O=c1c(O)c(-c2ccc(O)c(O)c2)oc2cc(O)cc(O)c12` [Quercetin], the IC50 in assay [2] (setting [5]) was 2.05 ± 0.24 µM.

On to `COc1ccc(-c2cc(=O)c3c(O)cc(O)c(-c4cc(-c5cc(=O)c6c(O)cc(OC)cc6o5)ccc4OC)c3o2)cc1` [Sciadopitysin], for which, in assay [3], the Inhibition mode result is reported as “Mixed” and affinity was put at a Ki of 0.67 µM. This compound also yielded a half-inhibitory concentration (IC50) in assay [1] of 0.28 ± 0.036 µM. Moreover, the IC50 in assay [2] (setting [5]) is 0.11 ± 0.009 µM.

As for Ginkgolide B, the “inhibition of intracellular hUGT1A1” value in assay [2] is recorded as “did not inhibit”.

As for Ginkgolide C, the “inhibition of intracellular hUGT1A1” value in assay [2] was “did not inhibit”.

A word on the IC50: it is the point on the concentration scale where inhibition reaches its midpoint. One may read the Ki as the equilibrium dissociation constant of an inhibitor or competing ligand from its target.

(Values after paper PMC8899474, “Discovery and Characterization of the Key Constituents in Ginkgo biloba Leaf Extract With Potent Inhibitory Effects on Human UDP-Glucuronosyltransferase 1A1” (Frontiers in Pharmacology, 2022).)
